Usually IC50 stands for the concentration needed to halve the response being measured.

Read-outs that look alike come from different tables or passages of the source.

From patent US8637499B2, “Benzoxazepines as inhibitors of PI3K/mTOR and methods of their use and manufacture” (Exelixis, Inc., priority 2009, dated 2014) come the findings set out here.

In one assay the target is mTORC1 (mTOR/GbL/Raptor) (Homo sapiens, UniProt P42345). Kind of assay: mTOR/GbL/Raptor (mTORC1) ELISA Assay. In kind it is biochemical. To be noted: 0.2 nM mTORC1, 10 μM ATP, 50 nM NHis-tagged 4E-BP1, phosphorylation of 4E-BP1. In short, it runs like this:
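Detection used Ni-chelate capture of His-tagged 4E-BP1, then anti-phospho-4E-BP1 and HRP anti-IgG with luminescent ELISA substrate. Reactions ran 120 min at ambient temperature with 0.2 nM mTORC1, 10 μM ATP, 50 nM 4E-BP1, 10 mM MnCl2, pH 7.2 Hepes.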
A general note: ELISA stands for enzyme-linked immunosorbent assay.

The next assay concerns the target PI3Kα (Homo sapiens, UniProt P42336). As to the kind of experiment: PI3K Biochemical Assays (ATP consumption, luciferase-luciferin chemiluminescence). Particulars: PI3Kα 1.5 nM, ATP 1 μM, PIP2 10 μM; percent of ATP consumed. In short, it runs like this:
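Enzyme (1.5 nM), PIP2 substrate (10 μM) and ATP (1 μM) react about 2 h at room temperature in Tris buffer pH 7.5 with MgCl2, EGTA, DTT and CHAPS. Remaining ATP detected by Kinase-Glo luminescence; total consumption limited to 40-60%.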

Sequence of PI3Kα (P42336 whole entry): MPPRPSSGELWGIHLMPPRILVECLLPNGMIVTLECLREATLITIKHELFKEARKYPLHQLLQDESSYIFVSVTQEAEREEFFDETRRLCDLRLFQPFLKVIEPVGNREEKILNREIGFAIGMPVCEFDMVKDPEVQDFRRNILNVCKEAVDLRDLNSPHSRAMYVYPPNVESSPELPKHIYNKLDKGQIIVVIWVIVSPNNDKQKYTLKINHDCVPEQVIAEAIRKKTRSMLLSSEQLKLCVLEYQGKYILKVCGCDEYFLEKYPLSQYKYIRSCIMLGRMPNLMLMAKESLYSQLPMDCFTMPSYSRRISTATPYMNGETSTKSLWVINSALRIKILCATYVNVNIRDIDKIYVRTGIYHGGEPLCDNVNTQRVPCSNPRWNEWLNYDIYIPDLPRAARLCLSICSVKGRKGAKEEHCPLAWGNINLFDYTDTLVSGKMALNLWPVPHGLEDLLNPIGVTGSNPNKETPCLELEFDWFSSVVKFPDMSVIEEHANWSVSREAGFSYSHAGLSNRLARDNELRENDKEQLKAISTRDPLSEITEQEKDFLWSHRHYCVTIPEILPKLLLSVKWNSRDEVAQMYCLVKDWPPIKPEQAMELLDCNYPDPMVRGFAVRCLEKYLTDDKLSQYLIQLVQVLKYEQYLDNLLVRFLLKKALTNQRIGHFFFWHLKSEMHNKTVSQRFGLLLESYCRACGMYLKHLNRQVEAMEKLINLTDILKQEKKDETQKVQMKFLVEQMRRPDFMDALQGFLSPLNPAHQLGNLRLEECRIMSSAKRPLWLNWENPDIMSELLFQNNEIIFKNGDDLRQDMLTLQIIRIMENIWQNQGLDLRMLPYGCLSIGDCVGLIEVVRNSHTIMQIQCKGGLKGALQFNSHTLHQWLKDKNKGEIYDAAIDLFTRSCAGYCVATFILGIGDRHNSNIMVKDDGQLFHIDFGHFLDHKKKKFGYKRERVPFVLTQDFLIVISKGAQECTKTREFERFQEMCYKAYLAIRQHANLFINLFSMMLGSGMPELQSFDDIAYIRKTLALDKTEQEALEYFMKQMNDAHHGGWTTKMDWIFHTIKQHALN
Sequence of PI3Kα (P27986 whole entry partner): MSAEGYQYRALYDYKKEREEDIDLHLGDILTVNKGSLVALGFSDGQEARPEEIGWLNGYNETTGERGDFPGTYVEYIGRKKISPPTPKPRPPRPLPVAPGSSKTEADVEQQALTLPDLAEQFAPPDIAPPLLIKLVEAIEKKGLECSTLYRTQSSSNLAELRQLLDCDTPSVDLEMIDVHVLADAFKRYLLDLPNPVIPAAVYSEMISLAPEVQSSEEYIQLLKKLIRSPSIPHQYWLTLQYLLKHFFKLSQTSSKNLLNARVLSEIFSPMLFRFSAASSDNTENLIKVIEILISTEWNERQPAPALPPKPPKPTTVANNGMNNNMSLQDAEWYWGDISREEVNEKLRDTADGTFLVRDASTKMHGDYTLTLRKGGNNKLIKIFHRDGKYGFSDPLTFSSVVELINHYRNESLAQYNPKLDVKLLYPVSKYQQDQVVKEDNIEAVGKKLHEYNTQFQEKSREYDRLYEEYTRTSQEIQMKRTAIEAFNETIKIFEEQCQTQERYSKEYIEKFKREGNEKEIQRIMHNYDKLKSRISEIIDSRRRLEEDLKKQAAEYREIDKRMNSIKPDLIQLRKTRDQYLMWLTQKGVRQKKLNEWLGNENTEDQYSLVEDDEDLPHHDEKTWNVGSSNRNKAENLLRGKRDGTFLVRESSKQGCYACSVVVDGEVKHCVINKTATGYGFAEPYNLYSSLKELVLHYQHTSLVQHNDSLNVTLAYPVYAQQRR

As to `Cc1nc2ccc(-c3ccc4c(c3)CN(C(=O)N3CCN(c5ccccc5)CC3c3ccccc3)CCO4)cc2[nH]1` (stereo not shown) [Compound 145, 4-[(2,4-diphenylpiperazin-1-yl)carbonyl]-7-(2-methyl-1H-benzimidazol-6-yl)-2,3,4,5-tetrahydro-1,4-benzoxazepine], the IC50 is 0.25 to 0.7 µM at mTORC1 (mTOR/GbL/Raptor) (read-out: IC50) and 1 to 3 µM against PI3Kα.

For the compound `Cc1nc2ccc(-c3ccc4c(c3)CN(C(=O)N3CCN(c5ccc(C(F)(F)F)cn5)CC3)CCO4)cc2[nH]1` [Compound 150, 7-(2-methyl-1H-benzimidazol-6-yl)-4-({4-[5-(trifluoromethyl)pyridin-2-yl]piperazin-1-yl}carbonyl)-2,3,4,5-tetrahydro-1,4-benzoxazepine], the results for the IC50 result on mTORC1 (mTOR/GbL/Raptor) and against PI3Kα were “not active” and 0.5 to 1 µM, respectively.

`Cc1cccc(CN(C)C(=O)N2CCOc3ccc(-c4ccc5nc(C)[nH]c5c4)cc3C2)c1` [Compound 153, N-methyl-7-(2-methyl-1H-benzimidazol-6-yl)-N-[(3-methylphenyl)methyl]-2,3-dihydro-1,4-benzoxazepine-4(5H)-carboxamide]: the IC50 at mTORC1 (mTOR/GbL/Raptor) (read-out: IC50) was 0.25 to 0.7 µM; on PI3Kα, 1 to 3 µM.

Take `Cc1ccc(OCC2CN(C(=O)N3CCOc4ccc(-c5ccc6nc(C)[nH]c6c5)cc4C3)CCO2)cc1` (stereo not shown) [Compound 154, 7-(2-methyl-1H-benzimidazol-6-yl)-4-[(2-{[(4-methylphenyl)oxy]methyl}morpholin-4-yl)carbonyl]-2,3,4,5-tetrahydro-1,4-benzoxazepine]: the IC50 at mTORC1 (mTOR/GbL/Raptor) (read-out: IC50) was in the range of 0.7 to 2.6 µM; against PI3Kα, 1 to 3 µM.

In the case of `Cc1nc2ccc(-c3ccc4c(c3)CN(C(=O)N3CCC5CCCCC5C3)CCO4)cc2[nH]1` (stereo not shown) [Compound 156, 7-(2-methyl-1H-benzimidazol-6-yl)-4-(octahydroisoquinolin-2(1H)-ylcarbonyl)-2,3,4,5-tetrahydro-1,4-benzoxazepine], the values for the IC50 at mTORC1 (mTOR/GbL/Raptor) (read-out: IC50) and against PI3Kα were 0.05 to 0.25 µM and 0.2 to 0.5 µM, respectively.

Turning to `Cc1nc2ccc(-c3ccc4c(c3)CN(C(=O)N3CC=C(c5ccccc5)CC3)CCO4)cc2[nH]1` [Compound 157, 7-(2-methyl-1H-benzimidazol-6-yl)-4-[(4-phenyl-3,6-dihydropyridin-1(2H)-yl)carbonyl]-2,3,4,5-tetrahydro-1,4-benzoxazepine], the IC50 was 0.05 to 0.25 µM on mTORC1 (mTOR/GbL/Raptor) (read-out: IC50) and 0.2 to 0.5 µM on PI3Kα.

On to `Cc1nc2ccc(-c3ccc4c(c3)CN(C(=O)N3CCN(c5cnccn5)CC3)CCO4)cc2[nH]1` [Compound 161, 7-(2-methyl-1H-benzimidazol-6-yl)-4-[(4-pyrazin-2-ylpiperazin-1-yl)carbonyl]-2,3,4,5-tetrahydro-1,4-benzoxazepine], for which the values for the IC50 at mTORC1 (mTOR/GbL/Raptor) (read-out: IC50) and against PI3Kα were 0.25 to 0.7 µM and 0.2 to 0.5 µM, respectively.

On to `Cc1nc2ccc(-c3ccc4c(c3)CN(C(=O)N3CCC(c5noc(C)n5)CC3)CCO4)cc2[nH]1` [Compound 162, 7-(2-methyl-1H-benzimidazol-6-yl)-4-{[4-(5-methyl-1,2,4-oxadiazol-3-yl)piperidin-1-yl]carbonyl}-2,3,4,5-tetrahydro-1,4-benzoxazepine], for which the IC50 at mTORC1 (mTOR/GbL/Raptor) (read-out: IC50) was in the range of 0.25 to 0.7 µM; at PI3Kα, 1 to 3 µM.

As to `Cc1nc2ccc(-c3ccc4c(c3)CN(C(=O)N3CCC(c5noc(C6CC6)n5)CC3)CCO4)cc2[nH]1` [Compound 163, 4-{[4-(5-cyclopropyl-1,2,4-oxadiazol-3-yl)piperidin-1-yl]carbonyl}-7-(2-methyl-1H-benzimidazol-6-yl)-2,3,4,5-tetrahydro-1,4-benzoxazepine], the values for the IC50 on mTORC1 (mTOR/GbL/Raptor) (read-out: IC50) and against PI3Kα were 0.25 to 0.7 µM and 1 to 3 µM, respectively.

In the case of `Cc1nc2ccc(-c3ccc4c(c3)CN(C(=O)N3CCN(c5ncccn5)CC3)CCO4)cc2[nH]1` [Compound 166, 7-(2-methyl-1H-benzimidazol-6-yl)-4-[(4-pyrimidin-2-ylpiperazin-1-yl)carbonyl]-2,3,4,5-tetrahydro-1,4-benzoxazepine], the IC50 was in the range of 0.7 to 2.6 µM at mTORC1 (mTOR/GbL/Raptor) (read-out: IC50) and 0.2 to 0.5 µM against PI3Kα.

Regarding `Cc1nc2ccc(-c3ccc4c(c3)CN(C(=O)N3CCCCCCC3)CCO4)cc2[nH]1` [Compound 167, 4-(azocan-1-ylcarbonyl)-7-(2-methyl-1H-benzimidazol-6-yl)-2,3,4,5-tetrahydro-1,4-benzoxazepine], the IC50 on mTORC1 (mTOR/GbL/Raptor) (read-out: IC50) is 0.7 to 2.6 µM; on PI3Kα, 1 to 3 µM.

Consider `Cc1nc2ccc(-c3ccc4c(c3)CN(C(=O)N3CCC(c5ccccc5)CC3)CCO4)cc2[nH]1` [Compound 170, 7-(2-methyl-1H-benzimidazol-6-yl)-4-[(4-phenylpiperidin-1-yl)carbonyl]-2,3,4,5-tetrahydro-1,4-benzoxazepine], for which the IC50 at mTORC1 (mTOR/GbL/Raptor) (read-out: IC50) is 0.05 to 0.25 µM; on PI3Kα it was 1 to 3 µM.

Turning to `Cc1nc2ccc(-c3ccc4c(c3)CN(C(=O)N3CCN(c5ccccn5)CC3)CCO4)cc2[nH]1` [Compound 172, 7-(2-methyl-1H-benzimidazol-6-yl)-4-[(4-pyridin-2-ylpiperazin-1-yl)carbonyl]-2,3,4,5-tetrahydro-1,4-benzoxazepine], the IC50 at mTORC1 (mTOR/GbL/Raptor) (read-out: IC50) was in the range of 0.7 to 2.6 µM; on PI3Kα it was 0.2 to 0.5 µM.

`Cc1nc2ccc(-c3ccc4c(c3)CN(C(=O)N3CCN(c5ccccc5)CC3)CCO4)cc2[nH]1` [Compound 174, 7-(2-methyl-1H-benzimidazol-6-yl)-4-[(4-phenylpiperazin-1-yl)carbonyl]-2,3,4,5-tetrahydro-1,4-benzoxazepine]: the IC50 lay in the range of 0.25 to 0.7 µM at mTORC1 (mTOR/GbL/Raptor) (read-out: IC50) and 0.5 to 1 µM at PI3Kα.

Take `Cc1nc2ccc(-c3ccc4c(c3)CN(C(=O)N3CCN(c5ccc(F)cc5)CC3)CCO4)cc2[nH]1` [Compound 175, 4-{[4-(4-fluorophenyl)piperazin-1-yl]carbonyl}-7-(2-methyl-1H-benzimidazol-6-yl)-2,3,4,5-tetrahydro-1,4-benzoxazepine]: the half-inhibitory concentration (IC50) lay in the range of 0.7 to 2.6 µM at mTORC1 (mTOR/GbL/Raptor) (read-out: IC50) and 1 to 3 µM on PI3Kα.

On to `Cc1nc2ccc(-c3ccc4c(c3)CN(C(=O)N3CCN(c5cccc(Cl)c5)CC3)CCO4)cc2[nH]1` [Compound 176, 4-{[4-(3-chlorophenyl)piperazin-1-yl]carbonyl}-7-(2-methyl-1H-benzimidazol-6-yl)-2,3,4,5-tetrahydro-1,4-benzoxazepine], for which the concentration for half-maximal inhibition (IC50) on mTORC1 (mTOR/GbL/Raptor) (read-out: IC50) was 0.05 to 0.25 µM; against PI3Kα it was 1 to 3 µM.

In the case of `CCN(Cc1ccccc1)C(=O)N1CCOc2ccc(-c3ccc4nc(C)[nH]c4c3)cc2C1` [Compound 177, N-ethyl-7-(2-methyl-1H-benzimidazol-6-yl)-N-(phenylmethyl)-2,3-dihydro-1,4-benzoxazepine-4(5H)-carboxamide], the IC50 on mTORC1 (mTOR/GbL/Raptor) (read-out: IC50) was 0.05 to 0.25 µM; at PI3Kα it was 0.2 to 0.5 µM.

For the compound `O=C(N1CCOc2ccc(-c3cnc4nc[nH]c4c3)cc2C1)N1[C@@H]2CC[C@H]1C[C@](O)(C(F)(F)F)C2` [Compound 178, 8-{[7-(1H-imidazo[4,5-b]pyridin-6-yl)-2,3-dihydro-1,4-benzoxazepin-4(5H)-yl]carbonyl}-3-(trifluoromethyl)-8-azabicyclo[3.2.1]octan-3-(endo)-ol], the values for the IC50 on mTORC1 (mTOR/GbL/Raptor) (read-out: IC50) and against PI3Kα were 0.05 to 0.25 µM and 0.2 to 0.5 µM, respectively.

Consider `CCNc1nc2ncc(-c3ccc4c(c3)CN(C(=O)N3[C@@H]5CC[C@H]3C[C@](O)(C(F)(F)F)C5)CCO4)cc2[nH]1` [Compound 179, 8-({7-[2-(ethylamino)-1H-imidazo[4,5-b]pyridin-6-yl]-2,3-dihydro-1,4-benzoxazepin-4(5H)-yl}carbonyl)-3-(trifluoromethyl)-8-azabicyclo[3.2.1]octan-3-(endo)-ol], for which the IC50 is at most 0.05 µM at mTORC1 (mTOR/GbL/Raptor) (read-out: IC50) and at most 0.075 µM against PI3Kα.

As for `CS(=O)(=O)Nc1cc(-c2ccc3c(c2)CN(C(=O)N2C4CCC2CC(O)(C(F)(F)F)C4)CCO3)cnc1Cl` (stereo not shown) [Compound 181, N-[2-chloro-5-(4-{[3-hydroxy-3-(trifluoromethyl)-8-azabicyclo[3.2.1]oct-8-yl]carbonyl}-2,3,4,5-tetrahydro-1,4-benzoxazepin-7-yl)pyridin-3-yl]methanesulfonamide], the IC50 on mTORC1 (mTOR/GbL/Raptor) (read-out: IC50) was at most 0.05 µM; against PI3Kα it was at most 0.075 µM.
